Measured values from EP4624465A1, “COMPOUND SERVING AS DDR1 KINASE INHIBITOR, AND MEDICINE” (Nippon Shinyaku Co., Ltd., priority 2022, dated 2024).

Target: DDR1 kinase (Homo sapiens, UniProt Q08345)
Test: Evaluation of DDR1 kinase inhibition (LANCE Ultra TR-FRET kinase assay)
Type: biochemical
Parameters: purchased Carna Biosciences 08-113
Settings: DDR1 protein 0.5 nM, LANCE Ultra ULight-poly GAT substrate, 2 hours at room temperature, duplicate; read-out: DDR-1 IC50

Chain of DDR1 kinase (Q08345 19-876 isoform Q08345-2 limits assumed): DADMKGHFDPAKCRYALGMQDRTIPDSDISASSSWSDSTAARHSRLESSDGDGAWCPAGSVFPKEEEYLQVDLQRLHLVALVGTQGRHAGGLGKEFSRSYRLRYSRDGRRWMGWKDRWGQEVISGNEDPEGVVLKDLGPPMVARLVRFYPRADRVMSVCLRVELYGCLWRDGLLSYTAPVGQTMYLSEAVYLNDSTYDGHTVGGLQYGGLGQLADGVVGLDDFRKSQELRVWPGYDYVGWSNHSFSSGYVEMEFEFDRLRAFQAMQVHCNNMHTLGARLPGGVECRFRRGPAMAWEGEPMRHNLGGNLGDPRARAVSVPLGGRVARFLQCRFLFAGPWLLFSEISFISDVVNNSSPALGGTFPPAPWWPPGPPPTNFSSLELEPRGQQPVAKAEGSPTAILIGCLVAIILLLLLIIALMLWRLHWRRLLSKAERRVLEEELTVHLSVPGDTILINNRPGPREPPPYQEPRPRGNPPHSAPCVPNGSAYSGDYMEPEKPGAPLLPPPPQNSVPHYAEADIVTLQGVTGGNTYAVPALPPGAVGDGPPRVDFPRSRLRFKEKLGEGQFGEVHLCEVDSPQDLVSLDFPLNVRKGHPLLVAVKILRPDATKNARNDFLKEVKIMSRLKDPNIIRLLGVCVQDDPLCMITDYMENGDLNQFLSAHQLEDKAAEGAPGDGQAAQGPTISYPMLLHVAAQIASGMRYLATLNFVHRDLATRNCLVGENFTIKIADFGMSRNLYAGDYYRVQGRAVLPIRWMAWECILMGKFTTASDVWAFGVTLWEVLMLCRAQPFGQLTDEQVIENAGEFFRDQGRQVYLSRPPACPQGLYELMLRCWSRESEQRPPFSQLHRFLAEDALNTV

How did the IC50 turn out when Nc1nccc(C(=O)N2CC(c3nn(CC(=O)N4CCO[C@@H](C(F)(F)F)C4)c4ccccc34)C2)n1 [Compound E-215, 2-{3-[1-(2-aminopyrimidine-4-carbonyl)azetidin-3-yl]-1H-indazol-1-yl}-1-[(2R)-2-(trifluoromethyl)morpholin-4-yl]ethan-1-one] was run?
Its IC50 is 56 nM.

Nc1cc(C(=O)N2CC(c3nn(Cc4noc(C(F)(F)F)n4)c4cccc(F)c34)C2)ccn1 [Compound E-216, 4-[3-(4-fluoro-1-([5-(trifluoromethyl)-1,2,4-oxadiazol-3-yl]methyl)-1H-indazol-3-yl)azetidine-1-carbonyl]pyridin-2-amine] was tested. Which IC50 did it give?
The IC50 was 13 nM.

With Nc1cc(C(=O)N2CC(c3nn(Cc4noc(C(F)(F)F)n4)c4ccccc34)C2)ccn1 [Compound E-217, 4-[3-(1-{[5-(trifluoromethyl)-1,2.4-oxadiazol-3-yl]methyl}-1 H-indazol-3-yl)azetidine-1-carbonyl]pyridin-2-amine] as the compound, how does the IC50 read?
The IC50 was 32 nM.

With Nc1cc(C(=O)N2CC(c3nn(CC(=O)N4CCC[C@H]4CO)c4ccccc34)C2)ccn1 [Compound E-219, 2-{3-[1-(2-aminopyridine-4-carbonyl)azetidin-3-yl]-1H-indazol-1-yl]-1-[(2S)-2-(hydroxymethyl)pyrrolidin-1-yl]ethan-1-one] as the compound, how does the IC50 read?
The IC50 was 160 nM.

Which IC50 does the source give for CC(C)(C)OC(=O)Cn1nc(C2CN(C(=O)c3cc(N)ncc3F)C2)c2ccccc21 [Compound E-220, tert-butyl 2-{3-[1-(2-amino-5-fluoropyridine-4-carbony)azetidin-3-yl]-1H-indazol-1-yl}acetate] here?
Its IC50 is 3.6 nM.

For CC1(C)CCCN1C(=O)Cn1nc(C2CN(C(=O)c3ccnc(N)c3)C2)c2ccccc21 [Compound E-221, 2-{3-[1-(2-aminopyridine-4-carbonyl)azetidin-3-yl]-1H-indazol-1-yl}-1-(2,2-dimethylpyrrolidin-1-yl)ethan-1-one], which IC50 is on record?
The IC50 was 4.4 nM.

With CC[C@@H]1CCCN1C(=O)Cn1nc(C2CN(C(=O)c3ccnc(N)c3)C2)c2ccccc21 [Compound E-222, 2-{3-[1-(2-aminopyridine-4-carbonyl)azetidin-3-yl)-1H-indazol-1-yl}-1-[(2R)-2-ethylpyrrolidin-1-yl]ethan-1-one] as the compound, how does the IC50 read?
Its IC50 is 2.1 nM.

Which IC50 does the source give for Nc1cc(C(=O)N2CC(c3nn(CC(=O)N4CCC5CC54)c4ccccc34)C2)ccn1 (stereo not drawn) [Compound E-223, 2-{3-[1-(2-aminopyridine-4-carbonyl)azetidin-3-yl]-1H-indazol-1-yl}-1-{2-azabicyclo[3.1.0)hexan-2-yl}ethan-1-one] here?
Its IC50 is 82 nM.

Which IC50 does the source give for Nc1cc(C(=O)N2CC(c3nn(CC(=O)NC(C4CC4)C4CC4)c4ccccc34)C2)ccn1 [Compound E-224, 2-{3-[1-(2-aminopyridine-4-carbonyl)azetidin-3-yl]-1H-indazol-1-yl}-N-(dicyclopropylmethyl)acetamide] here?
Its IC50 is 18 nM.

Which IC50 does the source give for Nc1cc(C(=O)N2CC(c3nn(CC(=O)NCCOC(F)(F)F)c4ccccc34)C2)ccn1 [Compound E-227, 2-{3-[1-(2-aminopyridine-4-carbonyl)azetidin-3-yl)-1H-indazol-1-yl}-N-[2-(trifluoromethoxy)ethyl]acetamide] here?
Its IC50 is 60 nM.

How did the IC50 turn out when CO[C@H]1CCN(C(=O)Cn2nc(C3CN(C(=O)c4cc(N)ncc4F)C3)c3ccccc32)C1 [Compound E-230, 2-{3-[1-(2-amino-5-fluoropyridine-4-carbonyl)azetidin-3-yl]-1H-indaaol-1-yl}-1-[(3S)-3-methoxypyrrolidin-1-yl]ethan-1-one] was run?
Its IC50 is 54 nM.

With CO[C@@H]1CCN(C(=O)Cn2nc(C3CN(C(=O)c4cc(N)ncc4F)C3)c3ccccc32)C1 [Compound E-231, 2-{3-[1-(2-amino-5-fluoropyridine-4-carbonyl)azetidin-3-yl]-1H-indazol-1-yl}-1-1(3R)-3-methoxypyrrolidin-1-yllethan-1-one] as the compound, how does the IC50 read?
The IC50 was 30 nM.

Nc1cc(C(=O)N2CC(c3nn(CC(=O)N4CCC5(COC5)C4)c4ccccc34)C2)c(F)cn1 [Compound E-232, 2-{3-[1-(2-amino-5-fluoropyridine-4-carbonyl)azetidin-3-yl]-1H-indazol-1-yl}-1-{2-oxa-6-azaspiro[3.4]octan-6-yl}ethan-1-one] was tested. Which IC50 did it give?
The IC50 was 38 nM.

For Nc1cc(C(=O)N2CC(c3nn(CC(=O)NC4CCOCC4)c4ccccc34)C2)ccn1 [Compound E-233, 2-{3-[1-(2-aminopyridine-4-carbonyl)azetidin-3-yl]-1H-indazol-1-yl}-N-(oxan-4-yl)acetamide], which IC50 is on record?
The IC50 was 500 nM.

Which IC50 does the source give for CC(C)(NC(=O)Cn1nc(C2CN(C(=O)c3ccnc(N)c3)C2)c2ccccc21)C1CC1 [Compound E-234, 2-{3-[1-(2-aminopyridine-4-carbonyl)azetidin-3-yl]-1H-indazol-1-yl}-N-(2-cyclopropylpropan-2-yl)acetamide] here?
Its IC50 is 7.9 nM.

With Nc1cc(C(=O)N2CC(c3nn(CC(=O)NC4CCC(F)(F)CC4)c4ccccc34)C2)ccn1 [Compound E-235, 2-{3-[1-(2-aminopyridine-4-carbonyl)azetidin-3-yl]-1H-indazol-1-yl}-N-(4,4-difluorocyclohexyl)acetamide] as the compound, how does the IC50 read?
The IC50 was 59 nM.

For Nc1cc(C(=O)N2CC(c3nn(CC(=O)NC4CC5CCC4C5)c4cccc(F)c34)C2)ccn1 (stereo not drawn) [Compound E-238, 2-{3-[1-(2-aminopyridine-4-carbonyl)azetidin-3-yl]-4-fluoro-1H-indazol-1-yl}-N-{bicyclo[2.2.1]heptan-2-yl}acetamide], which IC50 is on record?
The IC50 was 5.6 nM.

How did the IC50 turn out when Nc1cc(C(=O)N2CC(c3nn(CC(=O)NC45CC(C4)C5)c4cccc(F)c34)C2)ccn1 [Compound E-239, 2-{3-[1-(2-aminopyridine-4-carbonyl)azetidin-3-yl]-4-fluoro-1H-indazol-1-yl}-N-{bicyclo[1.1.1]pentan-1-yl}acetamide] was run?
Its IC50 is 3.3 nM.

With Nc1nccc(C(=O)N2CC(c3nn(CC(=O)N4CCC[C@H]4C(F)(F)F)c4ccc(F)cc34)C2)n1 [Compound E-241, 2-{3-[1-(2-aminopyrimidine-4-carbonyl)azetidin-3-yl]-5-fluoro-1H-indazol-1-yl}-1-[(2S)-2-(trifluoromethyl)pyrrolidin-1-yl]ethan-1-one] as the compound, how does the IC50 read?
The IC50 was 4.3 nM.

How did the IC50 turn out when CCN(CC(F)(F)F)C(=O)Cn1nc(C2CN(C(=O)c3cc(N)ncc3F)C2)c2ccccc21 [Compound E-249, 2-{3-[1-(2-amino-5-fluoropyridine-4-carbonyl)azetidin-3-yl]-1H-indazol-1-yl}-N-ethyl-N-(2,2,2-trifluoroethyl)acetamide] was run?
Its IC50 is 3.5 nM.

How did the IC50 turn out when CN(CC1CC(F)(F)C1)C(=O)Cn1nc(C2CN(C(=O)c3cc(N)ncc3F)C2)c2ccccc21 [Compound E-256, 2-{3-[1-(2-amino-5-fluoropyridine-4-carbonyl)azetidin-3-yl]-1H-indazol-1-yl]-N-[(3,3-difluorocyclobutyl)methyl]-N-methylacetamide] was run?
The IC50 was 2 nM.

Nc1cc(C(=O)N2CC(c3nn(CC(=O)N4CC5CCC(C4)O5)c4ccccc34)C2)c(F)cn1 [Compound E-258, 2-{3-[1-(2-amino-5-fluoropyridine-4-carbonyl)azetidin-3-yl]-1H-indazol-1-yll-1-18-oxa-3-azabicyclo[3.2.1}octan-3-yl]ethan-1-one] was tested. Which IC50 did it give?
Its IC50 is 74 nM.

Which IC50 does the source give for Nc1cc(C(=O)N2CC(c3nn(CC(=O)N4CCCC(C(F)(F)F)C4)c4ccccc34)C2)c(F)cn1 (stereo not drawn) [Compound E-259, 2-{3-[1-(2-amino-5-fluoropyridine-4-carbonyl)azetidin-3-yl}-1H-indazol-1-yl}-1-[3-(trifluoromethyl)piperidin-1-yl]ethan-1-one] here?
Its IC50 is 2.1 nM.

CN1CCN(C(=O)Cn2nc(C3CN(C(=O)c4cc(N)ncc4F)C3)c3ccccc32)CC1 [Compound E-260] was tested. Which IC50 did it give?
The IC50 was 240 nM.

With CN(CCN1CCOCC1)C(=O)Cn1nc(C2CN(C(=O)c3cc(N)ncc3F)C2)c2ccccc21 [Compound E-264] as the compound, how does the IC50 read?
The IC50 was 170 nM.

With C[C@@H]1CCC[C@H](C)N1C(=O)Cn1nc(C2CN(C(=O)c3cc(N)ncc3F)C2)c2ccccc21 [Compound E-266, 2·{3-[1-(2-amino-5-fluoropyridine-4-carbonyl)azetidin-3-yl]-1H-indazol-1-yl}-1-[(2R,68)-2,6-dimethylpiperidin-1-yl]ethan-1-one] as the compound, how does the IC50 read?
The IC50 was 4.5 nM.

With CC(C)N(C(=O)Cn1nc(C2CN(C(=O)c3cc(N)ncc3F)C2)c2ccccc21)C(C)C [Compound E-267, 2-{3-[1-(2-amino-5-fluoropyridine-4-carbonyl)azetidin-3-yl]-1H-indazol-1-yl}-N,N-bis(propan-2-yl)acetamide] as the compound, how does the IC50 read?
The IC50 was 6.2 nM.

For CN(C(=O)Cn1nc(C2CN(C(=O)c3cc(N)ncc3F)C2)c2ccccc21)C(C)(C)C [Compound E-268, 2-{3-[1-(2-amino-5-fluoropyridine-4-carbonyl)azetidin-3-yl]-1H-indazol-1-yl}-N-tert-butyl-N-methylacetamide], which IC50 is on record?
Its IC50 is 3.9 nM.

How did the IC50 turn out when CC1(c2nn(CC(=O)N3CCC[C@H]3C(F)(F)F)c3ccccc23)CN(C(=O)c2cc(N)ncc2F)C1 [Compound E-271, 2-{3-[1-(2-amino-5-fluoropyridine-4-carbonyl)-3-methylazetidin-3-yl]-1H-indazol-1-yl}-1-[(2S)-2-(trifluoromethyl)pyrrolidin-1-yl]ethan-1-one] was run?
The IC50 was 4 nM.

Which IC50 does the source give for CN(CC(F)(F)F)C(=O)Cn1nc(C2(C)CN(C(=O)c3ccnc(N)c3)C2)c2ccccc21 [Compound E-273, 2-{3-[1-(2-aminopyridine-4-carbonyl)-3-methylazetidin-3-yl]-1H-indazol-1-yl}-N-methyl-N-(2,2,2-trifluoroethyl)acetamide] here?
The IC50 was 60 nM.

How did the IC50 turn out when CN(CC(F)(F)F)C(=O)Cn1nc(C2CN(C(=O)c3nc(N)ncc3F)C2)c2cc(F)ccc21 [Compound E-278, 2-{3-[1-(2-amino-5-fluoropyrimidine-4-carbonyl)azetidin-3-yl]-5-fluoro-1H-indazol-1-yl}-N-methyl-N-(2,2,2-trifluoroethyl)acetamide] was run?
The IC50 was 6.9 nM.

How did the IC50 turn out when Nc1cc(C(=O)N2CC(c3nn(CC(=O)N4CCC[C@H]4C(F)(F)F)c4cc(F)c(F)cc34)C2)c(F)cn1 [Compound E-280] was run?
The IC50 was 0.9 nM.

How did the IC50 turn out when Nc1cc(C(=O)N2CC(O)(c3nn(CC(=O)N4CCC[C@H]4C(F)(F)F)c4ccccc34)C2)c(F)cn1 [Compound E-281, 2-{3-[1-(2-amino-5-fluoropyridine-4-carbonyl)-3-hydroxyazetidin-3-yl]-1H-indazol-1-yl}-1-[(28)-2-(trifluoromethyl)pyrrolidin-1-yl]ethan-1-one] was run?
The IC50 was 11 nM.
